This data set concerns individuals with obesity. Nature of the data set: Example 2 study: adverse events. Format: in vivo, human. The text has this: This study is designed to evaluate the safety, tolerability, PD and PK of dose to higher doses of Compound 1 in individuals with obesity. The Multiple Ascending Dose (MAD) study is a randomized, investigator- and participant-blind, placebo-controlled, multiple-ascending dose, single- or multi-site study conducted in individuals with obesity (i.e., females or males aged 18-70 years, inclusive, a BMI in the range of 27 kg/m^2 to 50 kg/m^2). Participants should have stable body weight for at least 3 months prior to the initiation of the study.
Dose of Compound 1 is assessed with weekly dosing over 20 weeks in 2 cohorts. Each cohort comprises 12 patients-nine patients are administered Compound 1 and three patients are administered placebo.
The dose for Cohort 1 is as follows: • 1.5 mg Compound 1 for 2 weeks; • 3.0 mg Compound 1 for 2 weeks; • 6.0 mg Compound 1 for 4 weeks; • 8.0 mg Compound 1 for 4 weeks; • 12.0 mg Compound 1 for 4 weeks; and • 16.0 mg Compound 1 for 4 weeks.
The dose for Cohort 2 is as follows: • 2.0 mg Compound 1 for 3 weeks; • 4.0 mg Compound 1 for 3 weeks; • 6.0 mg Compound 1 for 3 weeks; • 8.0 mg Compound 1 for 3 weeks; • 10.0 mg Compound 1 for 2 weeks; • 13.0 mg Compound 1 for 2 weeks, and • 16.0 mg Compound 1 for 4 weeks.
Safety parameters assessed during the study include: AEs (with special interest to GI AEs such as nausea, vomiting, and diarrhea), laboratory parameters, physical examinations/medical assessments, vital signs and ECGs, BW, injection site reactions, hypersensitivity reactions, and glucose monitoring (with special attention to hypoglycemia).

The record followed here is patent publication US20260248879A1, “METHODS OF USING A GCG/GLP1 CO-AGONIST FOR THERAPY” (ELI LILLY AND COMPANY, priority 2022, published 2026).

Take `CC(C)C[C@H](NC(=O)[C@H](CC(C)C)NC(=O)[C@H](Cc1c[nH]c2ccccc12)NC(=O)[C@H](CCC(=O)O)NC(=O)[C@@H](NC(=O)[C@H](Cc1ccccc1)NC(=O)[C@H](CCC(=O)O)NC(=O)[C@H](CCCCNC(=O)COCCOCCNC(=O)COCCOCCNC(=O)CC[C@H](NC(=O)CCCCCCCCCCCCCCCCCCC(=O)O)C(=O)O)NC(=O)[C@H](C)NC(=O)[C@H](CCCCN)NC(=O)[C@H](CCCCN)NC(=O)[C@H](CCC(=O)O)NC(=O)[C@H](CC(=O)O)NC(=O)[C@H](CC(C)C)NC(=O)[C@H](Cc1ccc(O)cc1)NC(=O)[C@H](CCCCN)NC(=O)[C@H](CO)NC(=O)[C@H](Cc1ccc(O)cc1)NC(=O)[C@H](CC(=O)O)NC(=O)[C@H](CO)NC(=O)[C@@H](NC(=O)[C@H](Cc1ccccc1)NC(=O)[C@@H](NC(=O)CNC(=O)[C@H](CCC(N)=O)NC(=O)C(C)(C)NC(=O)[C@@H](N)Cc1c[nH]cn1)[C@@H](C)O)[C@@H](C)O)C(C)C)C(=O)N[C@@H](CCC(=O)O)C(=O)NCC(=O)NCC(=O)N1CCC[C@H]1C(=O)N[C@@H](CO)C(=O)N[C@@H](CO)C(=O)NCC(N)=O` [Compound 1]: the deaths entry (Example 2 study) is listed as “No deaths occurred”. Moreover, under “in vivo”, the “most common treatment-emergent adverse events” value is reported as “gastrointestinal in nature (nausea, vomiting, diarrhea)” and the serious adverse events entry is recorded as “No serious adverse events were observed”.
